Results reported in patent US20250268877A1 (BIOGEN MA INC., priority 2020, published 2025).
pIC50: −log10 of the molar value. Converted amounts (≈) assume the structure as drawn.

Tests used:
IRAK4 = IRAK4 (Homo sapiens (Human), UniProt Q9NWZ3); assay: IRAK4 2-hour 1 mM ATP Biochemical Assay (MesoScale Detection format); conditions: 100 pM IRAK4, read-out: IRAK4 IC50
Procedure: The 2-hour 1 mM ATP Biochemical Assay employed a MesoScale Detection (MSD) format.
The activity was quenched with 11 μl of 70 mM EDTA, pH 8.
To detect the phosphorylated biotinylated peptide substrate, 30 μl of the quenched reaction mixture was added to equivalent wells of a 384 well streptavidin coated MesoScale plate (Meso Scale Discovery #L21SA-1). After a 1 hour incubation of the plate for 1 hour at room temperature with gentle mixing, the plate wells were washed 3 times with 50 mM Tris, pH 7.5, 150 mM NaCl, 0.02% Tween-20.
A 25 μl volume of 1:500 anti-P-Threonine Rabbit polyclonal Antibody plus 1:500 Goat-anti-Rabbit Sulfo Tag Antibody (Meso Scale Discovery R^32AB-1) in 50 mM Tris, pH 7.5, 150 mM NaCl, 0.02% Tween-20 plus 2% BSA was then added to each well. After a 1-hour incubation of the plate for 1 hour at room temperature with gentle mixing, the plate wells were washed, 3 times with 50 mM Tris, pH 7.5, 150 mM NaCl, 0.02% Tween-20.

MDR1 = MDR1 (Homo sapiens (Human), UniProt P08183); assay: MDR1-MDCK assay (apparent permeability, efflux ratio); assay type: in vitro ADME; conditions: human, MDCK-MDR1, 1 μM, read-out: MDR1-MDCK_Efflux Ratio
[1] = Kinetic solubility assay (CLND), potassium phosphate buffer pH 6.8; assay type: physicochemical; conditions: pH 6.8, 2% DMSO, 24 hours at ambient temperature; for solubility at 24 h: potassium phosphate buffer, pH 6.8, aqueous buffer, kinetic from dmso stock
Source text: • Inject filtrates into the nitrogen detector for quantification on Analiza's Automated Discovery Workstation (ADW). • Solubility results generated in μg/mL

MDR1, sequence (P08183 whole entry): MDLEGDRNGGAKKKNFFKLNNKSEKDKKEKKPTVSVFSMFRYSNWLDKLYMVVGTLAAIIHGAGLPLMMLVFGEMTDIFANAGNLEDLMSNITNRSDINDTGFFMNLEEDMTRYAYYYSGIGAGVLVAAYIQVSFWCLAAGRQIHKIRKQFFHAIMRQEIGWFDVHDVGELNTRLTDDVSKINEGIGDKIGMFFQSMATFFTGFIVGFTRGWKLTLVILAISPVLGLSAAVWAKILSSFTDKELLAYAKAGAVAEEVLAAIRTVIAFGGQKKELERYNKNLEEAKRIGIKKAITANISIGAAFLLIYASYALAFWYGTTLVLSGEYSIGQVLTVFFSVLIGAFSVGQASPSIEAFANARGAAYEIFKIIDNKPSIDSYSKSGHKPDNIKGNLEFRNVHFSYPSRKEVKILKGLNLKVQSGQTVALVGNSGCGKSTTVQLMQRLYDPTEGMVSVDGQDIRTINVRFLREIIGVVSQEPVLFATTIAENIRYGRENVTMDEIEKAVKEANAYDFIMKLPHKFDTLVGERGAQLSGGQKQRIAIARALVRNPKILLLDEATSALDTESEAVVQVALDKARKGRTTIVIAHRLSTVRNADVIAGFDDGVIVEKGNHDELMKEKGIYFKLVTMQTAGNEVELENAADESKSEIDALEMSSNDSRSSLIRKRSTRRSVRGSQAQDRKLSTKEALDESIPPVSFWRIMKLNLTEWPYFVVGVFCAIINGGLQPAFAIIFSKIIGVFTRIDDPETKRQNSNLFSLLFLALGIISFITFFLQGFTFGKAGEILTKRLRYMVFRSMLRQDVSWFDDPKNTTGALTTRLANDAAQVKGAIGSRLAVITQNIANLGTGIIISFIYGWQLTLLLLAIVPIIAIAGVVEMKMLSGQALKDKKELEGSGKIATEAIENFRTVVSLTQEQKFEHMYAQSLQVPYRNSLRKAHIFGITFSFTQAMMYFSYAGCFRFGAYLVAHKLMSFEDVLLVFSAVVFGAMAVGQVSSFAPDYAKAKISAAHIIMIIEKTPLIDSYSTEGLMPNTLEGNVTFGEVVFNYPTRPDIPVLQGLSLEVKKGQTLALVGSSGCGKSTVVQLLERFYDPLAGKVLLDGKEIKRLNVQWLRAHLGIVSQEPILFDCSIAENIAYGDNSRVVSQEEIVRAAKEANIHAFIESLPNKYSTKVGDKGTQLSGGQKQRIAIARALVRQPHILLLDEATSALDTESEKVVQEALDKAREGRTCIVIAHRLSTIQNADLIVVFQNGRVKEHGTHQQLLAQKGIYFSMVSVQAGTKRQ
IRAK4, sequence (Q9NWZ3 whole entry): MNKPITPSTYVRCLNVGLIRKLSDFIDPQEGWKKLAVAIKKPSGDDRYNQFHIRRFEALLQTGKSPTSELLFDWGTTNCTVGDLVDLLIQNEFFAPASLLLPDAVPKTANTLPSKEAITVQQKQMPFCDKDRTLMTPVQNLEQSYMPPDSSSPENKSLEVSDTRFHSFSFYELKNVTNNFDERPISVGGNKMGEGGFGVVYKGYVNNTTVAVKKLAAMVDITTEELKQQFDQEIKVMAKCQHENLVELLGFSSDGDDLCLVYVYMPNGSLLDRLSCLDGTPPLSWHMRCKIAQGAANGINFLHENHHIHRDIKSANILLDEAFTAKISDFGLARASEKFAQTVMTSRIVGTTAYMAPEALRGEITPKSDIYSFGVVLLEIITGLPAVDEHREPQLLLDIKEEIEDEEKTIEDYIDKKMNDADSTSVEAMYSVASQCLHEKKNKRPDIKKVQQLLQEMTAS

Row | SMILES | pIC50 (IRAK4) | efflux ratio at 120 min, 1 μM (MDR1) | solubility at 24 h [1] | Solubility pH 6.8 [1]
1 | COCC12CC(n3cc4cc(C(=O)Nc5cccn([C@H]6C[C@H]6F)c5=O)c(OC(C)C)cc4n3)(CO1)C2 [Example 67, N-(1-((1S,2R)-2-fluorocyclopropyl)-2-oxo-1,2-dihydropyridin-3-yl)-6-isopropoxy-2-(1-(methoxymethyl)-2-oxabicyclo[2.1.1]hexan-4-yl)-2H-indazole-5-carboxamide] | 9.40 | 5.31 | 34 µg/mL (≈ 68.5 µM) | 
2 | CC(C)Oc1cc2nn([C@@]34CC[C@@](C)(C3)OC4)cc2cc1C(=O)Nc1cccn([C@H]2C[C@@H]2F)c1=O (single isomer, unassigned) [Example 60] | 9.30 | 1.75 | 52.9 µg/mL (≈ 110 µM) | 
3 | COCC12CCC(n3cc4cc(C(=O)Nc5cccn(C6CC6)c5=O)c(OC(C)C)nc4n3)(CO1)C2 (centres unmarked) [Example 29, N-(1-cyclopropyl-2-oxo-1,2-dihydropyridin-3-yl)-6-isopropoxy-2-(1-(methoxymethyl)-2-oxabicyclo[2.2.1]heptan-4-yl)-2H-pyrazolo[3,4-b]pyridine-5-carboxamide] | 9.70 | 2.79 | 74.2 µg/mL (≈ 150 µM) | 
4 | CC(C)Oc1nc2nn(C34COC(C3)C4)cc2cc1C(=O)Nc1cccn(C2CC2)c1=O [Example 28, 2-(2-oxabicyclo[2.1.1]hexan-4-yl)-N-(1-cyclopropyl-2-oxo-1,2-dihydropyridin-3-yl)-6-isopropoxy-2H-pyrazolo[3,4-b]pyridine-5-carboxamide] | 9.40 | 4.72 | 2.7 µg/mL (≈ 6.2 µM) | 
5 | CC(C)Oc1nc2nn(C34COC(C)(C3)C4)cc2cc1C(=O)Nc1ccnn(C2CC2)c1=O [Example 46, N-(2-cyclopropyl-3-oxo-2,3-dihydropyridazin-4-yl)-6-isopropoxy-2-(1-methyl-2-oxabicyclo[2.1.1]hexan-4-yl)-2H-pyrazolo[3,4-b]pyridine-5-carboxamide] | 9.40 | 0.88 | 0.2 µg/mL (≈ 0.444 µM) | 
6 | CC(C)Oc1cc2nn(C34COC(CF)(C3)C4)cc2cc1C(=O)Nc1cccn([C@H]2C[C@H]2C)c1=O [Example 82, 2-(1-(fluoromethyl)-2-oxabicyclo[2.1.1]hexan-4-yl)-6-isopropoxy-N-(1-((1S,2R)-2-methylcyclopropyl)-2-oxo-1,2-dihydropyridin-3-yl)-2H-indazole-5-carboxamide] | 9.15 | 2.17 | 33.8 µg/mL (≈ 70.3 µM) | 
7 | C[C@@H]1C[C@@H]1n1cccc(NC(=O)c2cc3cn([C@@]45CC[C@@H](C4)OC5)nc3nc2OC2CC2)c1=O (single isomer, unassigned) [Example 93] | 9.30 | 2.5 |  | 47.6 ug/mL
8 | CC(C)Oc1nc2nn([C@H]3CCCOC3)cc2cc1C(=O)Nc1cccn(C2CC2)c1=O [Example 16, (S)—N-(1-cyclopropyl-2-oxo-1,2-dihydropyridin-3-yl)-6-isopropoxy-2-(tetrahydro-2H-pyran-3-yl)-2H-pyrazolo[3,4-b]pyridine-5-carboxamide] | 9.70 | 2.09 | 44.6 µg/mL (≈ 102 µM) | 
9 | CC(C)Oc1cc2nn([C@]34CC[C@](C)(C3)OC4)cc2cc1C(=O)Nc1cccn([C@@H]2C[C@H]2F)c1=O (single isomer, unassigned) [Example 61] | 9.30 | 1.43 | 51.5 µg/mL (≈ 107 µM) | 
10 | CC12CC(n3cc4cc(C(=O)Nc5cccn(C6CC6)c5=O)c(OC5CCC5)cc4n3)(CO1)C2 [Example 1, 6-Cyclobutoxy-N-(1-cyclopropyl-2-oxo-1,2-dihydropyridin-3-yl)-2-(1-methyl-2-oxabicyclo[2.1.1]hexan-4-yl)-2H-indazole-5-carboxamide] | 9.05 |  | 71 µg/mL (≈ 154 µM) | 
